Experimental data as given in patent US9394284B2, “Compounds act at multiple prostaglandin receptors giving a general anti-inflammatory response” (Allergan, Inc., priority 2010, dated 2016).

How the values were obtained:
Type in all cases: cell-based
[1] = target: T1, human prostanoid EP4 receptor (Homo sapiens, UniProt P35408); test: FLIPR Ca2+ signaling antagonist assay, EP4 receptor stable cell line; details: HEK-293 EBNA stable cell line; standard agonist PGE2; NA = inactive (no antagonism or Kb 10,000 nM); PAg, Ag not defined
T1 construct: expressed in transfected cells
T1 sequence (P35408 whole entry): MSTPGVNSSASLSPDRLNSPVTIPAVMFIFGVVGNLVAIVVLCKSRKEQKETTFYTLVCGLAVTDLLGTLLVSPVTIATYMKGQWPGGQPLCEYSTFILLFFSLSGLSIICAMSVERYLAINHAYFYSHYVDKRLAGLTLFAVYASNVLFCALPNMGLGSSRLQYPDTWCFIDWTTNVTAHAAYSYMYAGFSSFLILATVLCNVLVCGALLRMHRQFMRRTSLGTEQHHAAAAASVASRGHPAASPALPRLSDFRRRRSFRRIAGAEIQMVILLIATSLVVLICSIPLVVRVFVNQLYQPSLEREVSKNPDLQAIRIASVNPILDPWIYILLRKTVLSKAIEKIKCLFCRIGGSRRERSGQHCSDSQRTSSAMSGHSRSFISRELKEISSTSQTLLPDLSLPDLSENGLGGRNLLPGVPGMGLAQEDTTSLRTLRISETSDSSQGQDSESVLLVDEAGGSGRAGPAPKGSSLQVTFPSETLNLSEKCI
Outline: (§1)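 Peak Fluo-4 fluorescence (ex 470–495, em 515–575 nm) was read for 3.5 min on FLIPR after agonist injection and expressed relative to 10^−6 M standard agonist. Cells were HEK-293 EBNA transfectants. Test compound was added 4.5 min beforehand at 0.1–30 μM, or 0.067–1 μM for TP.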

[2] = target: T2, human prostanoid EP1 receptor (Homo sapiens, UniProt P34995); test: FLIPR Ca2+ signaling antagonist assay, EP1 receptor stable cell line; details: HEK-293 EBNA stable cell line; standard agonist PGE2; NA = inactive (no antagonism or Kb 10,000 nM); PAg, Ag not defined
T2 construct: expressed in transfected cells
T2 sequence (P34995 1-402): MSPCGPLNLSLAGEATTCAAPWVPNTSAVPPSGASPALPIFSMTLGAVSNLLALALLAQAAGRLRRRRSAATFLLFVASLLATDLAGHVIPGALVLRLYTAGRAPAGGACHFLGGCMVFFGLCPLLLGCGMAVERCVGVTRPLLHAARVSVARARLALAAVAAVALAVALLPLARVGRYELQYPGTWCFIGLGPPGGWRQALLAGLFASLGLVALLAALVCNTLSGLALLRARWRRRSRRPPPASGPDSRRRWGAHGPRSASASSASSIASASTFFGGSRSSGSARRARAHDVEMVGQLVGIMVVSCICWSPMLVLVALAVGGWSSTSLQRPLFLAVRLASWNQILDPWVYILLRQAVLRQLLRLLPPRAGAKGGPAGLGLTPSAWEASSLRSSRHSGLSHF
Outline: (§2)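 HEK-293 EBNA cells stably expressed the receptor: DP1 with chimeric Gqs, EP3 with Gqi, and EP1 and TP without exogenous G protein. Fluo-4AM-loaded cells were preincubated 4.5 min at 37 °C with antagonist (0.1–30 μM; TP 0.067–1 μM) before agonist serial dilutions. Peak FLIPR fluorescence was normalised to the 10^−6 M agonist control.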

[3] = target: T3, human prostanoid IP receptor (Homo sapiens, UniProt P43119); test: FLIPR Ca2+ signaling antagonist assay, IP receptor stable cell line; details: HEK-293 EBNA stable cell line; standard agonist Cicaprost; NA = inactive (no antagonism or Kb 10,000 nM); PAg, Ag not defined
T3 construct: expressed in transfected cells
T3 sequence (P43119 whole entry): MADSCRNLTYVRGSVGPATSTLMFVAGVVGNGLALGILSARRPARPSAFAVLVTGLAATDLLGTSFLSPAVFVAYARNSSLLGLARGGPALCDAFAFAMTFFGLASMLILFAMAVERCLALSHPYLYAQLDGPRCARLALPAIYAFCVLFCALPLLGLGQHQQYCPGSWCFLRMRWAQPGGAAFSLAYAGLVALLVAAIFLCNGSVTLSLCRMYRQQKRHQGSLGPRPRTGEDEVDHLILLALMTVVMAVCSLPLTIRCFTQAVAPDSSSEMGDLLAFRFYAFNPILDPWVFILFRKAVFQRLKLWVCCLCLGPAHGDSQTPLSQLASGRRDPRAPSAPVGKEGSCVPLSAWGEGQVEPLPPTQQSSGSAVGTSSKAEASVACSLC
Outline: as §1

[4] = target: T4, human prostanoid TP receptor (Homo sapiens, UniProt P21731); test: FLIPR Ca2+ signaling antagonist assay, TP receptor stable cell line; details: HEK-293 EBNA stable cell line; standard agonist U-46619; NA = inactive (no antagonism or Kb 10,000 nM); PAg, Ag not defined
T4 construct: expressed in transfected cells
T4 sequence (P21731 1-343): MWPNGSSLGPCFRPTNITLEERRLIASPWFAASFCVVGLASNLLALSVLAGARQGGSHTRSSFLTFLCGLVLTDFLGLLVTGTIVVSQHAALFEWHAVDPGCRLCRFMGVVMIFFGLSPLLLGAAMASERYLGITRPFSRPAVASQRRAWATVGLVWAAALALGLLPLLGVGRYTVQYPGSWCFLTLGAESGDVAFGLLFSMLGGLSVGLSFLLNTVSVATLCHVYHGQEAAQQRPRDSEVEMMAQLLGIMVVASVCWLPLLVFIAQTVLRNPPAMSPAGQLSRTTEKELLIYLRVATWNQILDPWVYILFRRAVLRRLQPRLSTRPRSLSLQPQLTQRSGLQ
Outline: as §2

Cc1cc(CC(C)(C)C(=O)O)nn1Cc1cc(Br)ccc1OCC1CCCC1 [Example 71, 3-{1-[5-Bromo-2-(2-cyclopentylmethoxy)-benzyl]-5-methyl-1H-pyrazol-3-yl}-2,2-dimethyl-propionic acid]
Kb [1]: 80 nM
Kb [2]: 50 nM
Kb [3]: 3100 nM
Kb [4]: 8 nM

CCC(CC)COc1ccc(Br)cc1Cn1nc(CCC(=O)O)cc1C(C)(C)C [Example 57, 3-{1-[5-Bromo-2-(2-ethyl-butoxy)-benzyl]-5-tert-butyl-1H-pyrazol-3-yl}-propionic acid]
Kb [1]: 700 nM
Kb [2]: 150 nM
Kb [3]: 800 nM
Kb [4]: 500 nM

Cc1cc(CCC(=O)O)nn1Cc1cc(Cl)ccc1C#CC1CCCC1 [Example 73, 3-{1-[5-Chloro-2-cyclopentylethynyl-benzyl]-5-methyl-1H-pyrazol-3-yl}-propionic acid]
Kb [1]: 600 nM
Kb [2]: 6 nM
Kb [3]: 1600 nM
Kb [4]: 2 nM

CCCCC(CC)COc1ccc(Br)cc1Cn1nc(CCC(=O)O)cc1C (stereo not drawn) [Example 6, 3-[1-(5-Bromo-2-(2-ethyl-hexyloxy)-benzyl)-5-methyl-1H-pyrazol-3-yl]-propionic acid]
Kb [1]: 1100 nM
Kb [2]: 380 nM
Kb [3]: 1800 nM
Kb [4]: 10 nM

CCCc1cc(CCC(=O)O)nn1Cc1cc(Br)ccc1OCC(CC)CC [Example 56, 3-{1-[5-Bromo-2-(2-ethyl-butoxy)-benzyl]-5-propyl-1H-pyrazol-3-yl}-propionic acid]
Kb [1]: 3 nM
Kb [2]: 60 nM
Kb [3]: 1300 nM
Kb [4]: 70 nM

CCC(CC)COc1ccc(Br)cc1Cn1nc(CCC(=O)O)cc1C(C)C [Example 55, 3-{1-[5-Bromo-2-(2-ethyl-butoxy)-benzyl]-5-isopropyl-1H-pyrazol-3-yl}-propionic acid]
Kb [1]: 80 nM
Kb [2]: 60 nM
Kb [3]: 1100 nM
Kb [4]: 250 nM

CCCC(C)COc1ccc(Br)cc1Cn1nc(CCC(=O)O)cc1C (stereo not drawn) [Example 8, 3-[1-(5-Bromo-2-(2-methyl-pentyloxy)-benzyl)-5-methyl-1H-pyrazol-3-yl]-propionic acid]
Kb [1]: 400 nM
Kb [2]: 40 nM
Kb [3]: 1700 nM
Kb [4]: 1 nM

Cc1cc(CCC(=O)NS(=O)(=O)C(F)(F)F)nn1Cc1cc(Br)ccc1OCC(C)C [Example 19, N-(3-{1-[5-Bromo-2-isobutoxybenzyl]-5-methyl-1H-pyrazol-3-yl}-propionyl)-C,C,C-trifluoro-methanesulfonamide]
Kb [1]: 30 nM
Kb [2]: 14 nM
Kb [3]: 1400 nM
Kb [4]: 1 nM

CCC(CC)COc1ccc(Br)cc1Cn1nc(CCC(=O)NS(=O)(=O)C(F)(F)F)cc1C [Example 17, N-(3-{1-[5-Bromo-2-(2-ethyl-butoxy)-benzyl]-5-methyl-1H-pyrazol-3-yl}-propionyl)-C,C,C-trifluoro-methanesulfonamide]
Kb [1]: 35 nM
Kb [2]: 15 nM
Kb [3]: 2700 nM
Kb [4]: < 1 nM

CCC(CC)COc1ccc(Br)cc1Cn1nc(CCC(=O)O)cc1C(F)(F)F [Example 58, 3-{1-[5-Bromo-2-(2-ethyl-butoxy)-benzyl]-5-trifluororomethyl-1H-pyrazol-3-yl}-propionic acid]
EP4 (FLIPR) Kb [1]: PAg
Kb [2]: 370 nM
IP (FLIPR) Kb [3]: PAg
Kb [4]: 150 nM

Cc1cc(CCC(=O)NS(=O)(=O)C(F)(F)F)nn1Cc1cc(Cl)ccc1OCc1ccc(Cl)cc1Cl [Example 27, N-(3-[1-(5-Chloro-2-(2,4-dichlorobenzyloxy)benzyl)-5-methyl-1H-pyrazol-3-yl]-propionyl)C,C,C-trifluoromethanesulfonamide]
Kb [1]: 150 nM
EP1 (FLIPR) Kb [2]: PAg
Kb [3]: 400 nM
TP (FLIPR) Kb [4]: PAg

Cc1cc(CCC(=O)NS(=O)(=O)CC(F)(F)F)nn1Cc1cc(Cl)ccc1OCc1ccc(Cl)cc1 [Example 25, 2,2,2-trifluoroethanesulfonic acid-(3-[1-(5-Chloro-2-(4-chlorobenzyloxy)benzyl)-5-methyl-1H-pyrazol-3-yl]-propionyl)amide]
EP4 (FLIPR) Kb [1]: Ag
Kb [2]: 6 nM
Kb [3]: 7900 nM
Kb [4]: < 1 nM

Cc1cc(CCC(=O)O)nn1Cc1cc(Br)ccc1OCC1(C(F)(F)F)CCC1 [Example 13, 3-[1-(5-Bromo-2-(1-trifluoromethylcyclobutylmethoxy)-benzyl)-5-methyl-1H-pyrazol-3-yl]-propionic acid]
Kb [1]: 1000 nM
Kb [2]: 30 nM
Kb [3]: 8800 nM
Kb [4]: 10 nM

Cc1cc(CCC(=O)NS(=O)(=O)C(F)(F)F)nn1Cc1cc(Cl)ccc1CCC1CCCC1 [Example 75]
Kb [1]: 1000 nM
Kb [2]: 60 nM
Kb [3]: 1900 nM
Kb [4]: 12 nM

Cc1cc(CCC(=O)O)nn1Cc1cc(Cl)ccc1OCc1ccc(Cl)cc1Cl [Example 26, 3-[1-(5-Chloro-2-(2,4-dichlorobenzyloxy)benzyl)-5-methyl-1H-pyrazol-3-yl]-propionic acid]
Kb [1]: 8400 nM
Kb [2]: 3 nM
Kb [3]: 1000 nM
TP (FLIPR) Kb [4]: PAg
